Test results: US11464786B2, “CXCR7 inhibitors for the treatment of cancer” (CHEMOCENTRYX, INC., priority 2018, dated 2022)

What was measured:
Frs2β (+/+) CAFs = assay: Migration (mobilization) of CAFs in co-culture; format: cell-based, mouse; details: single inhibitor alone, 100 μg/ml; data not shown
Protocol: FIG. 4A-I CXCL12 produced from precancerous Frs2β (+/+) mammary cells induce tumor spheres and migration of CAFs. (A) Schematic of co-culture of Frs2β (+/+) tumor cells to form spheres in the lower chamber with Frs2β (+/+) precancerous mammary epithelial cells in the upper chamber. (B) Representative images of tumor sphere formation in the presence of Frs2β (+/+) mammary epithelial cells treated with control IgG (400 nM) or IGF1 neutralizing antibody (Nab) (400 nM). N.T., not treated (without co-culture with mammary epithelial cells). Scale bar: 100 ∝μ. (C) Quantification of tumor sphere-forming efficiency. Results are shown as means±SEM. n=4. ***p<0.001, **p<0.01. (D) Schematic of co-culture of Frs2β (+/+) or Frs2β (−/−) mammary cells in the lower chamber with Frs2β (+/+) or Frs2β (−/−) CAFs in the upper chamber. (E) Expression levels of Cxcl12 was compared between Frs2β (+/+) or Frs2β (−/−) mammary cells on the […] by qPCR. Results were shown as mean±SEM. n=6. * * *p<0.001. (F) Representative images of migrated Frs2β (+/+) CAFs co-cultured with Frs2β (+/+) or Frs2β (−/−) mammary cells in the […] for 24 hours. (G) Quantification of migrated Frs2β (+/+) CAFs. Results were shown as mean±SEM. n=4. **p<0.01. […] (I) Quantification of the migrated CAFs co-cultured with Frs2β (+/+) cancer cells for 24 hr. […]

Frs2β (+/+) mice = assay: DHMEQ treatment in vivo: RelA localization and cytokine transcripts in precancerous mammary tissues; set-up: species or system mouse; details: 10 μg/g intraperitoneally once a day for 3 weeks
From the text: (§1) FIG. 5A-K FRS2β-dependent increase in activation of AKT-NFκB increases the production of IGF1 and CXCL12, promoting tumorigenesis. (A) Schematic of DHMEQ treatment of cultured Frs2β (+/+) precancerous mammary epithelial cells in vitro. (B) Expression levels of Igf1, Cxcl12, and IκBα in Frs2β (+/+) precancerous mammary epithelial cells treated with the indicated concentration of DHMEQ were compared by qPCR. Results are shown as means±SEM. n=4. **p<0.01. (C) Immunoblotting analysis of the indicated proteins in the lysate of Frs2β (+/+) or Frs2β (−/−) precancerous mammary tissues. Actin was used as a loading control. (D) Immunoblotting analysis of cytoplasmic and nuclear expression levels of the indicated proteins (control as a nuclear protein) in the lysate of Frs2β (+/+) or Frs2β (−/−) mammary tissues. PARP1 was used as a representative protein in nucleus. Actin was used as a loading control. (E) Immunoblotting analysis of the indicated proteins in the lysate of Frs2β (+/+) or Frs2β (−/−) mammary tissues. Actin was used as a loading control. (F) Schematic of DHMEQ treatment of Frs2β (+/+) mice in vivo. The mice were intraperitoneally injected with 10 μg/g DHMEQ once a day for 3 weeks. (G) Immunohistochemical staining for Frs2β (+/+) mammary tissues with or without 3-week treatment with 10 μg/g DHMEQ, or Frs2β (−/−) mammary tissues, using antibodies against RelA. Scale bar: 50 ∝μ. (H) Expression levels of Igf1 and Cxcl12 in Frs2β (+/+) mammary tissues, with or without 3-week treatment with 10 μg/g DHMEQ. N.T., not treated. Results are shown as means±SEM. n=4. ***p<0.001 and **p<0.01 (I) Treatment of mice with a CXCR7 inhibitor and/or an IGF1 antibody reduces tumor volume. Frs2β (+/+) tumor sphere cells were inoculated into mammary fat pads of 8-week-old virgin female MMTV-neu (+)/Frs2β (+/+) mice. After 7 days, the mice were intraperitoneally injected with 0.1 μg/g IGF1 antibody (R&D Biosystems) once per week and/or 1 μg/g of AMD3100 (Sigma) one a day and 1.5 μg/g of Compound 1 once a day. […] Tumor volumes (J) and weights (K) were measured in mice treated as in (I). […]

[1] = test system: Frs2β (+/+) precancerous mammary epithelial cells; assay: qPCR of NFkB target gene expression in cultured precancerous mammary epithelial cells; format: cell-based, mouse; details: in vitro, dose-dependent
From the text: as §1

For `c1cc(CN2CCCNCCNCCCNCC2)ccc1CN1CCCNCCNCCCNCC1` [AMD3100], the “mobilization of CAFs” value (Frs2β (+/+) CAFs) was “did not observe significant effects”.
With `O=C(NC1=CC(=O)[C@H]2O[C@H]2[C@H]1O)c1ccccc1O` [DHMEQ] the “expression of Cxcl12 transcripts in precancerous mammary tissues” value (Frs2β (+/+) mice) was “inhibited”, the “expression of Igf1 transcripts in precancerous mammary tissues” value (Frs2β (+/+) mice) was “inhibited” and the “number of Frs2β (+/+) precancerous luminal cells harboring RelA in the nucleus” value (Frs2β (+/+) mice; immunohistochemistry) was “dramatically decreased”. The “expression of Cxcl12” value [1] was “inhibited”, the “expression of Igf1” value [1] was “inhibited” and the “expression of IkBa” value [1] was “inhibited”.
With `CC(C)c1cc(N2CCCN(Cc3csc(-c4ccccc4)n3)CC2)c2ncccc2c1` [Compound 1] the “mobilization of CAFs” value (Frs2β (+/+) CAFs) was “did not observe significant effects”.
